According to ChEMBL document CHEMBL1201862, “PubChem BioAssay data set” (2004):
The source made the active and inactive calls. Cut-off read from the data, not from the text of the source, for most assays here: actives have a measured IC50 and inactives only a lower limit.

Key:
[1] = target: T1, Runt-related transcription factor 1/Core-binding factor subunit beta (Homo sapiens, UniProt Q01196+Q13951); test: disruptors of Runt domain/CBFb-SMMHC interaction – biochemical, FRET, Cerulean-Runt, Venus-CBFb-SMMHC, uHTS, […] (AID 1434); type: protein assay
[2] = target: T1, Runt-related transcription factor 1/Core-binding factor subunit beta; test: Runt domain/CBFb-SMMHC interaction disruptors – biochemical, TR-FRET (AID 1438); type: protein assay
[3] = target: Troponin, cardiac muscle (Homo sapiens, UniProt P19429+P45379+P63316); test: Fluorescence-based biochemical high throughput dose response assay for activators of the calcium sensitivity of cardiac Regulated Thin Filaments (RTF). [Related pubchem assays (depositor defined):AID493008, AID493018, AID504382, AID504383]; type: protein-complex assay
[4] = target: T2, CAAX prenyl protease 2 (Saccharomyces cerevisiae S288c, UniProt Q03530); type: biochemical
T2 sequence (Q03530 whole entry): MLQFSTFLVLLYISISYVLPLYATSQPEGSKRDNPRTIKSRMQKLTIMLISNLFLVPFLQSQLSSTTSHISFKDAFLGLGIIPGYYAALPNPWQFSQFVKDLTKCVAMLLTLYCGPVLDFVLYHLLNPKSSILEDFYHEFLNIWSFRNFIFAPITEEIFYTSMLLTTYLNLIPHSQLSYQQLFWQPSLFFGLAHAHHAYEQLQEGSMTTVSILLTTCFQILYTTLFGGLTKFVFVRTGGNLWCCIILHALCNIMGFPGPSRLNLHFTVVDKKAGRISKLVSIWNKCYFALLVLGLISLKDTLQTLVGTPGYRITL

[5] = toxicity toward cultured mammalian cells – cell-based, plate reader, cherry-pick samples, cytotoxicity control, dose response (AID 504397); type: functional
[6] = target: Tyrosine-protein phosphatase non-receptor type 12 (Homo sapiens, UniProt Q05209); test: SAR Selectivity Analysis of small molecule inhibitors of PEST using pCAP in a fluorescence assay. [Related pubchem assays (depositor defined):AID1779, AID1784, AID2135]; type: functional
[7] = target: T3, Tyrosine-protein phosphatase non-receptor type 22 (Homo sapiens, UniProt Q9Y2R2); test: SAR LYP1 Fluorescent Assay using OMFP substrate for In Vitro dose response studies - Set 2. [Related pubchem assays (depositor defined):AID1779, AID1784, AID2140, AID449726, AID488869]; type: functional
T3 sequence (Q9Y2R2 whole entry): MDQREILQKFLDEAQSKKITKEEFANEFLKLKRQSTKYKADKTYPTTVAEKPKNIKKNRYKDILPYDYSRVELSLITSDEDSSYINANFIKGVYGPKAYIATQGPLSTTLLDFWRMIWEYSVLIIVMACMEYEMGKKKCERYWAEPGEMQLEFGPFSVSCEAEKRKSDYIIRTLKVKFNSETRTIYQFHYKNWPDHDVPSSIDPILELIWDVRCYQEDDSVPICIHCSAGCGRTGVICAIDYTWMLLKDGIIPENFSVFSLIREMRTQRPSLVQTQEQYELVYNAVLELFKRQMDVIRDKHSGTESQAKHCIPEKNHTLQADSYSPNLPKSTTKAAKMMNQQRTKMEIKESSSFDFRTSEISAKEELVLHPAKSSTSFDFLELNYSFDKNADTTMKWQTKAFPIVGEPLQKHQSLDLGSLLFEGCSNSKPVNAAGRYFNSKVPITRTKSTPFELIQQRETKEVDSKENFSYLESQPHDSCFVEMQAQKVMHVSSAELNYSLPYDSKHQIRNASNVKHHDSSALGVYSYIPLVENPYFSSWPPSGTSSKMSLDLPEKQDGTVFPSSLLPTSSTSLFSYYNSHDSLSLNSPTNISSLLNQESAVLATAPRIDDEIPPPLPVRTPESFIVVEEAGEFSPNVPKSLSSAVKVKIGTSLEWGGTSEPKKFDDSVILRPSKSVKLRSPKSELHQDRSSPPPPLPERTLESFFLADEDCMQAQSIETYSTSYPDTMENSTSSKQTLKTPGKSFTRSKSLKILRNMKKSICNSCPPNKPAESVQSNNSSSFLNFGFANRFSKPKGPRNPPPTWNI

[8] = target: T3, Tyrosine-protein phosphatase non-receptor type 22; test: SAR LYP1 Fluorescent Assay using OMFP substrate for In Vitro dose response studies - Set 3. [Related pubchem assays (depositor defined):AID1779, AID1784, AID2140, AID2686]; type: functional
[9] = target: T3, Tyrosine-protein phosphatase non-receptor type 22; test: SAR LYP1 Fluorescent Assay using pCAP substrate for In Vitro dose response studies - Set 2. [Related pubchem assays (depositor defined):AID1779, AID1784, AID2135, AID449727]; type: functional
[10] = target: T4, Tyrosine-protein phosphatase non-receptor type 7 (Homo sapiens, UniProt P35236); test: inhibition of hematopoietic tyrosine phosphatase HePTP – biochemical, set 2, SAR follow-up (AID 449736); type: functional
T4 sequence (P35236 whole entry): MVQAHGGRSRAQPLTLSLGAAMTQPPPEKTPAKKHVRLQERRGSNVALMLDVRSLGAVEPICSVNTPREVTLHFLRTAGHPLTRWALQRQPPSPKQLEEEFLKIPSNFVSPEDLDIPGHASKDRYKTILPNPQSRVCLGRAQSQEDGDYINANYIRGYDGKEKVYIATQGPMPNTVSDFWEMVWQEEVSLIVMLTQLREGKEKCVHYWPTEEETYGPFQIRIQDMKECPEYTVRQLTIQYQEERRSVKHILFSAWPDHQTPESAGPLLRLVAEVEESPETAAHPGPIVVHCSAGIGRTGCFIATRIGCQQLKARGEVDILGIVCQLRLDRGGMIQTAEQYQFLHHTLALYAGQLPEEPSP

[11] = target: T3, Tyrosine-protein phosphatase non-receptor type 22; test: inhibition of lymphoid tyrosine phosphatase LYP – biochemical, pCAP fluorogenic substrate, fluorescence, set 3, SAR follow-up (AID 449727); type: functional

## N=c1c(C(=O)NCc2ccc(F)cc2)cc2c(=O)n3ccccc3nc2n1Cc1ccco1
[1]
  IC50: 3.78 µM (active)
[2]
  IC50: 43.5 µM (active)

## O=[n+]1c2c(n([O-])c3ccccc31)CCC2
[3]
  EC50: > 71.5 µM (inactive)

## O=C(Nc1ccc(N2CCOCC2)c(Cl)c1)c1cc2ccccc2o1
[4]
  AC50: 3.46 µM (active)
[5]
  AC50: 260 µM (active)

## COc1ccccc1NS(=O)(=O)c1cccc(C(=O)NN=Cc2ccc(OCC(=O)O)cc2)c1
[6]
  IC50: > 100 µM (inactive)
[7]
  IC50: > 100 µM (inactive)
[8]
  IC50: > 100 µM (inactive)
[9]
  IC50: > 100 µM (inactive)
[10]
  IC50: > 100 µM (inactive)
[11]
  IC50: > 100 µM (inactive)
